Tests used:
[1] = Equilibration with solvents at 25° C. for 4 weeks (XRPD); assay type: physicochemical
Method: About 50 mg of Compound 1 free Form A was equilibrated in 0.1-1 mL of solvents at 25° C. for 4 weeks with a stirring bar on a magnetic stirring plate at a rate of 300 rpm. The obtained suspensions were filtered through a 0.45 μm nylon membrane filter by centrifugation at 14,000 rpm. Solid parts (wet cakes) were investigated by XRPD.

[2] = Salt screening by anti-solvent addition; assay type: physicochemical; details: Choline; MeOH/0.2 mL, anti-solvent MTBE/0.3 mL
[3] = Acetone/water (v:v = 86:14) a.w. = 0.6
[4] = Acetonitrile/water (v:v = 96:4) a.w. = 0.6
[5] = DMF/water (v:v = 73:27) a.w. = 0.6
[6] = Methanol/water (v:v = 69:31) a.w. = 0.6
[7] = THF/water (v:v = 82:18) a.w. = 0.9
[8] = THF/water (v:v = 92:8) a.w. = 0.6

CCN(C)S(=O)(=O)Nc1ccc(F)c(Oc2ccc3ncn([C@H]4COC5(CCN(C(=O)CC6(O)CCN(c7cc8c(cc7F)c(N7CCC(=O)NC7=O)nn8C)CC6)CC5)C4)c(=O)c3c2)c1C#N [Compound 1 Form A]
Form C*: XRPD (solid form after equilibration) ([1]; Ethyl acetate)
Form C: XRPD (solid form after equilibration) ([1]; 2-MeTHF)
Clear solution: Comments [1, 3] | Comments ([1]; DCM/methanol (v:v = 1:1)) | Comments ([1]; DMF) | Comments [1, 5] | Comments [1, 7] | Comments [1, 8]
Sticky material: Comments ([1]; 1,4-Dioxane/heptane (v:v = 1:1)) | Comments ([1]; Acetonitrile/water (v:v = 42:58) a.w. = 0.9) | Comments ([1]; DCM/heptane (v:v = 1:1)) | Notes [2]
Form A: XRPD (solid form after equilibration) ([1]; Ethanol) | XRPD (solid form after equilibration) ([1]; Isopropanol) | XRPD (solid form after equilibration) ([1]; Isopropyl acetate) | XRPD (solid form after equilibration) ([1]; MTBE) | XRPD (solid form after equilibration) ([1]; Toluene)
Low crystallinity: Comments ([1]; Ethanol) | Comments ([1]; Isopropanol) | Comments ([1]; Isopropyl acetate) | Comments ([1]; MTBE) | Comments ([1]; Methanol) | Comments [1, 6] | Comments ([1]; Toluene)
Almost amorphous: XRPD (solid form after equilibration) ([1]; Acetone/water (v:v = 36:64) a.w. = 0.9) | XRPD (solid form after equilibration) ([1]; DMF/water (v:v = 30:70) a.w. = 0.9) | XRPD (solid form after equilibration) ([1]; DMSO/water (v:v = 23:77) a.w. = 0.9) | XRPD (solid form after equilibration) ([1]; DMSO/water (v:v = 57:43) a.w. = 0.6) | XRPD (solid form after equilibration) ([1]; Methanol/water (v:v = 22:78) a.w. = 0.9)
(about 500 mg/mL): Comments: concentration of clear solution [1, 3] | Comments: concentration of clear solution ([1]; DCM/methanol (v:v = 1:1)) | Comments: concentration of clear solution ([1]; DMF) | Comments: concentration of clear solution [1, 5] | Comments: concentration of clear solution [1, 7] | Comments: concentration of clear solution [1, 8]
Medium: Comments (crystallinity) [1, 4]
Medium crystallinity: Comments ([1]; 2-MeTHF) | Comments ([1]; Acetone) | Comments ([1]; Acetonitrile) | Comments ([1]; Ethyl acetate) | Comments ([1]; Methyl ethyl ketone) | Comments ([1]; THF/heptane (v:v = 1:1))
Form B: XRPD (solid form after equilibration) ([1]; Acetone) | XRPD (solid form after equilibration) ([1]; Acetonitrile) | XRPD (solid form after equilibration) [1, 4] | XRPD (solid form after equilibration) ([1]; Methanol) | XRPD (solid form after equilibration) [1, 6] | XRPD (solid form after equilibration) ([1]; Methyl ethyl ketone) | XRPD (solid form after equilibration) ([1]; THF/heptane (v:v = 1:1))
